What was measured:
Plasmodium falciparum = test: Antiplasmodial activity against chloroquine-resistant Plasmodium falciparum K1 infected in human erythrocytes assessed as reduction in parasitemia after 72 hrs by lactate dehydrogenase assay; type: functional, cell-based; details: K1, 72 h
[1] = Cytotoxicity against human MRC5 cells assessed as decrease in cell viability after 7 days by MTT assay; type: toxicity, cell-based

SMILES | IC50 (Plasmodium falciparum) [µM] | IC50 at 7 days [1] [µM]
CCC(C)[C@H](NC(=O)[C@H](C(C)CC)N(C)C)C(=O)N[C@@H]1C(=O)N[C@@H](Cc2c[nH]cn2)C(=O)NCC(=O)c2ccc(cc2)O[C@H]1C(C)C (stereo partly drawn) | 27.9 | > 64
CCC(C)[C@@H](C(=O)N[C@H](C(=O)N[C@@H]1C(=O)N[C@@H](Cc2c[nH]c3ccccc23)C(=O)NCC(O)c2ccc(cc2)OC1(C)C)C(C)C)N(C)C (stereo partly drawn) | 17.5 | > 64
CCC(C)[C@@H](C(=O)N[C@H](C(=O)N[C@@H]1C(=O)N[C@@H](Cc2c[nH]c3ccccc23)C(=O)NCC(=O)c2ccc(cc2)OC1(C)C)C(C)C)[N+](C)(C)[O-] (stereo partly drawn) | 12.2 | > 64
CCC(C)[C@@H](C(=O)N[C@H](C(=O)N[C@@H]1C(=O)N[C@@H](Cc2c[nH]c3ccccc23)C(=O)NCC(=O)c2ccc(cc2)OC1(C)C)C(C)C)N(C)C (stereo partly drawn) | 16.4 | 51.1
